These results are taken from US5218126A, “Halogen substituted mitomycin derivatives” (Kyowa Hakko Kogyo Co., Ltd., priority 1990, dated 1993).

One series relates to HeLa S3 cells. Nature of the series: Growth Inhibition Test on HeLa S3 Cells. The class given is cell-based. The settings on record: Homo sapiens, 1 hour exposure, then 72 hours incubation at 37° C., Neutral Red staining, read-out: IC50 (concentration which inhibits cell growth by 50%). How it is done:
Growth Inhibition Test on HeLa S3 Cells
HeLa S3 cells were suspended in an MEM medium containing 10% fetal calf serum and 2 mM glutamine at a concentration of 3×10^4 cells/ml, and 0.1 ml of the cell suspension was put into each well of a 96-well microtiter plate.
After culturing at 37° C. overnight in a carbon dioxide gas incubator, 0.05 ml of a test sample appropriately diluted with the medium was added to each well. The cells were further cultured for one hour in the carbon dioxide gas incubator and the culture supernatant was removed. The residue was washed once with a phosphate buffer saline [PBS(-)] and 0.1 ml of a fresh medium was added to each well, and the cells were further incubated at 37° C. for 72 hours in the carbon dioxide gas incubator. After removal of the supernatant, 0.1 ml of culture medium containing 0.02% Neutral Red was added to each well, and the cells were further incubated at 37° C. for one hour in the carbon dioxide gas incubator to stain the cells. After removal of the culture supernatant, each well was washed once with a physiological saline, and the dye was extracted with 0.001N HCl/30% methanol. Absorbance of the extract at 550 nm was measured with a microplate reader. The cell growth inhibition percentage was calculated according to the following formula from the absorbance of the extract of the cells treated with the test compound in various concentrations and that of intact cells. [formula]
From the cell growth inhibition percentage thus obtained, the concentration of the test compound which inhibits cell growth by 50% (IC50) was determined.

The test system of another series is Sarcoma 180 solid tumor. Nature of the series: Anti-tumor Activity to Sarcoma 180 Solid Tumor. The class given is in vivo. The settings on record: Mus musculus, iv, 168 h; male ddY mice, s.c. Sarcoma 180, single i.v. injection 24 hours after implantation, tumor volume at 7 days; read-out: ED50 (dose showing T/C=0.5). How it is done: Anti-tumor Activity to Sarcoma 180 Solid Tumor
5×10^6 Sarcoma 180 cells were abdominally implanted into a ddY mouse and the cells were collected from the ascites of the mouse 7 days after the implantation. The cells were washed once with a sterilized physiological saline solution and then suspended in a sterilized physiological saline solution to prepare a cell suspension of 5×10^7 cells/ml. 0.1 ml of the cell suspension was subcutaneously implanted into the right axiallary space of male ddY mice weighting 20±2 g.
A test compound was dissolved in a physiological saline solution or a Tween 80-containing physiological saline solution, and 0.1 to 0.2 ml of the solution was intravenously injected to five mice as one group 24 hours after the implatation of the tumor cells.
The anti-tumor activity of the test compound was determined by measuring the major diameter (a) and the minor diameter (b) of the tumor 7 days after the implantation of tumor cells, and the value of (a×b^2 /2), which corresponds to the volume of the tumor, was calculated. The intended anti-tumor activity is represented by a ratio of T/C, in which C indicates the tumor volume of mice of the control group to which no test compound was administered and T indicates the tumor volume of mice of the test group to which the test compound was administered. T/C at each dose given was plotted in a graph in which T/C is shown by an ordinary scale on the vertical axis and a dose is shown by a logarithmic scale on the horizontal axis. The relation between the dose and T/C was determined to be a straight line by the least-squares method. From the regression formula of the straight line thus obtained, the dose of showing T/C=0.5 is calculated to give ED50.

A further series in a line: Acute Toxicity. The settings on record: mouse, in vivo, iv; ddY mice, single i.v. injection, 14 days observation, Behrens Kaerber's method. How it is done:
A test compound was intravenously injected once to five ddY mice as one group. […] LD50 was calculated from the death rate of each group according to the Behrens Kaerber's method.

For the compound `COC1=CC(=O)C2=C(C1=O)[C@@H](COC(N)=O)[C@@]1(OC)[C@H]3N[C@H]3CN21` [Compound 1, 6-demethylmitomycin A], in the series on HeLa S3 cells, the IC50 came to 210 nM. Further, the ED50 in the series with Sarcoma 180 solid tumor was determined as 1.6 mg/kg. In the series “Acute Toxicity”, this compound showed a median lethal dose (LD50) at 336 h of 2.8 mg/kg.

For the compound `CO[C@@]12[C@H](COC(N)=O)C3=C(C(=O)C(Cl)=C(N)C3=O)N1C[C@@H]1N[C@@H]12` [Compound 7, 6-chloro-6-demethylmitomycin C], the IC50 with HeLa S3 cells came to 550 nM.

As for `CO[C@@]12[C@H](COC(N)=O)C3=C(C(=O)C(Br)=C(N)C3=O)N1C[C@@H]1N[C@@H]12` [Compound 8, 6-bromo-6-demethylmitomycin C], the IC50 in the series on HeLa S3 cells was 720 nM. Besides, the ED50 with Sarcoma 180 solid tumor amounted to 1.6 mg/kg. In the series “Acute Toxicity”, this compound showed an LD50 at 336 h of 3.2 mg/kg.

As for `CO[C@@]12[C@H](COC(N)=O)C3=C(C(=O)C=C(N)C3=O)N1C[C@H]1[C@@H]2N1C` (stereo partly shown) [Compound 6, 6-demethylporfiromycin], in the series on HeLa S3 cells, the IC50 was found to be 7300 nM. Further, in the series with Sarcoma 180 solid tumor, the ED50 came out at 8.4 mg/kg. The same compound displayed an LD50 at 336 h in “Acute Toxicity” of 18 mg/kg.

Turning to `COC1=CC(=O)C2=C(C1=O)[C@@H](COC(N)=O)[C@@]1(OC)[C@@H]3[C@H](CN21)N3C` (stereo partly shown) [Compound 5, 6-demethylmitomycin F], in the series on HeLa S3 cells, the IC50 came out at 130 nM. The ED50 with Sarcoma 180 solid tumor was 7.1 mg/kg. Besides, the LD50 at 336 h in “Acute Toxicity” worked out at 26 mg/kg.

Consider `CN1[C@H]2[C@@H]1CN1C3=C(C(=O)C(N)=CC3=O)[C@H](COC(N)=O)[C@@]21O` (stereo partly shown) [Compound 4, 6-demethylmitomycin D], for which the IC50 with HeLa S3 cells was above 31000 nM. Also, the ED50 in the series on Sarcoma 180 solid tumor was determined as 33 mg/kg. This compound gave an LD50 at 336 h in the series “Acute Toxicity” above 100 mg/kg.

`COC1=CC(=O)C2=C(C1=O)[C@H](COC(N)=O)[C@@]1(O)[C@@H]3[C@H](CN21)N3C` (stereo partly shown) [Compound 2, 6-demethylmitomycin B]: the IC50 in the series on HeLa S3 cells was above 10000 nM. Moreover, the ED50 with Sarcoma 180 solid tumor was 11 mg/kg. Further, the LD50 at 336 h in “Acute Toxicity” is above 20 mg/kg.

On to `CO[C@@]12[C@H](COC(N)=O)C3=C(C(=O)C=C(N)C3=O)N1C[C@@H]1N[C@@H]12` [Compound 3, 6-demethylmitomycin C], for which the IC50 in the series on HeLa S3 cells stood at 2200 nM. The ED50 with Sarcoma 180 solid tumor is 2.6 mg/kg. The compound further gave an LD50 at 336 h in the series “Acute Toxicity” of 9.7 mg/kg.
